From patent US12612416B2, “Modulators of cystic fibrosis transmembrane conductance regulator” (VERTEX PHARMACEUTICALS INCORPORATED, priority 2020, dated 2026) come the findings set out here.

Data set [1] addresses CFTR-mediated chloride transport in human intestinal epithelial enteroid cells (Homo sapiens, UniProt P13569). The data set is described as follows: Membrane potential dye, Enteroid Assay B. The settings on record: for Ent. B Max Activity: % of chloride transport of triple combination control: 1 μM (14S)-8-[3-(2-{Dispiro[2.0.2.1]heptan-7-yl}ethoxy)-1H-pyrazol-1-yl]-12,12-dimethyl-...-2,2,4-trione, 3 μM tezacaftor, 300 nM acute ivacaftor; for EC50: enteroid cells, 18-24 hours incubation, acute 10 μM forskolin and 300 nM ivacaftor, read-out: Ent. B EC50. It counts as cell-based. The method, then: Base medium (ADF+++) consisted of Advanced DMEM/Ham's F12, 2 mM Glutamax, 10 mM HEPES, […] penicillin/streptomycin.
Intestinal enteroid maintenance medium (IEMM) consisted of ADF+++, 1×B27 supplement, 1×N2 supplement, 1.25 mM N-acetyl cysteine, 10 mM Nicotinamide, 50 ng/mL hEGF, 10 nM Gastrin, 1 μg/mL hR-spondin-1, 100 ng/mL hNoggin, TGF-b type 1 inhibitor A-83-01, 100 μg/mL Primocin, 10 μM P38 MAPK inhibitor SB202190.
Bath 1 Buffer consisted of 1 mM MgCl2, 160 mM NaCl, 4.5 mM KCl, 10 mM HEPES, 10 mM Glucose, 2 mM CaCl2).
Chloride Free Buffer consisted of 1 mM Magnesium Gluconate, 2 mM Calcium Gluconate, 4.5 mM Potassium Gluconate, 160 mM Sodium Gluconate, 10 mM HEPES, 10 mM Glucose.
BathI Dye Solution consisted of Bath 1 Buffer, 0.04% Pluronic F127, 20 μM Methyl Oxonol, 30 μM CaCCinh-A01, 30 μM Chicago Sky Blue.
Chloride Free Dye Solution consisted of Chloride Free Buffer, 0.04% Pluronic F127, 20 μM Methyl Oxonol, 30 μM CaCCinh-A01, 30 μM Chicago Sky Blue.
Chloride Free Dye Stimulation Solution consisted of Chloride Free Dye Solution, 10 μM forskolin, 100 μM IBMX, and 300 nM Compound III.
Human intestinal epithelial enteroid cells were obtained from the Hubrecht Institute for Developmental Biology and Stem Cell Research, Utrecht, The Netherlands and expanded in T-Flasks as previously described (Dekkers J F, Wiegerinck C L, de Jonge H R, Bronsveld I, Janssens H M, de Winter-de Groot K M, Brandsma A M, de Jong N W M, Bijvelds M J C, Scholte B J, Nieuwenhuis E E S, van den Brink S, Clevers H, van der Ent C K, Middendorp S and M Beekman J M. A functional CFTR assay using primary cystic fibrosis intestinal organoids. Nat Med. 2013 July; 19(7):939-45.).
Cells were recovered in cell recovery solution, collected by centrifugation at 650 rpm for 5 minutes at 4° C., resuspended in TrypLE and incubated for 5 minutes at 37° C. Cells were then collected by centrifugation at 650 rpm for 5 minutes at 4° C. and resuspended in IEMM containing 10 μM ROCK inhibitor (RI). The cell suspension was passed through a 40 μm cell strainer and resuspended at 1×10^6 cells/mL in IEMM containing 10 μM RI. Cells were seeded at 5000 cells/well into multi-well plates and incubated for overnight at 37° C., 95% humidity and 5% CO2 prior to assay.
Enteroid cells were incubated with test compound in IEMM for 18-24 hours at 37° C., 95% humidity, and 5% C02. […] Briefly, cells were washed 5 times in Bath 1 Buffer. Bath 1 Dye Solution was added and the cells were incubated for 25 minutes at room temperature. Following dye incubation, cells were washed 3 times in Chloride Free Dye Solution. Chloride transport was initiated by addition of Chloride Free Dye Stimulation Solution and the fluorescence signal was read for 15 minutes. […] Chloride transport was then expressed as a percentage of the chloride transport following treatment with 1 μM (14S)-8-[3-(2-{Dispiro[2.0.2.1]heptan-7-yl}ethoxy)-1H-pyrazol-1-yl]-12,12-dimethyl-2λ^6-thia-3,9,11,18,23-pentaazatetracyclo[17.3.1.111,14.05,10]tetracosa-1(22),5,7,9,19(23),20-hexaene-2,2,4-trione, 3 μM (R)-1-(2,2-difluorobenzo[d][1,3]dioxol-5-yl)-N-(1-(2,3-dihydroxypropyl)-6-fluoro-2-(1-hydroxy-2-methylpropan-2-yl)-1H-indol-5-yl)cyclopropanecarboxamide and 300 nM acute N-[2,4-bis(1,1-dimethylethyl)-5-hydroxyphenyl]-1,4-dihydro-4-oxoquinoline-3-carboxamide triple combination control (% Activity).

For data set [2] the following is noted: 13-membered ring.

Where two headings read alike, the source gives them in different places.

CFTR-mediated chloride transport in human intestinal epithelial enteroid cells, sequence (P13569 with tags, fused parts or gaps DEL508-508): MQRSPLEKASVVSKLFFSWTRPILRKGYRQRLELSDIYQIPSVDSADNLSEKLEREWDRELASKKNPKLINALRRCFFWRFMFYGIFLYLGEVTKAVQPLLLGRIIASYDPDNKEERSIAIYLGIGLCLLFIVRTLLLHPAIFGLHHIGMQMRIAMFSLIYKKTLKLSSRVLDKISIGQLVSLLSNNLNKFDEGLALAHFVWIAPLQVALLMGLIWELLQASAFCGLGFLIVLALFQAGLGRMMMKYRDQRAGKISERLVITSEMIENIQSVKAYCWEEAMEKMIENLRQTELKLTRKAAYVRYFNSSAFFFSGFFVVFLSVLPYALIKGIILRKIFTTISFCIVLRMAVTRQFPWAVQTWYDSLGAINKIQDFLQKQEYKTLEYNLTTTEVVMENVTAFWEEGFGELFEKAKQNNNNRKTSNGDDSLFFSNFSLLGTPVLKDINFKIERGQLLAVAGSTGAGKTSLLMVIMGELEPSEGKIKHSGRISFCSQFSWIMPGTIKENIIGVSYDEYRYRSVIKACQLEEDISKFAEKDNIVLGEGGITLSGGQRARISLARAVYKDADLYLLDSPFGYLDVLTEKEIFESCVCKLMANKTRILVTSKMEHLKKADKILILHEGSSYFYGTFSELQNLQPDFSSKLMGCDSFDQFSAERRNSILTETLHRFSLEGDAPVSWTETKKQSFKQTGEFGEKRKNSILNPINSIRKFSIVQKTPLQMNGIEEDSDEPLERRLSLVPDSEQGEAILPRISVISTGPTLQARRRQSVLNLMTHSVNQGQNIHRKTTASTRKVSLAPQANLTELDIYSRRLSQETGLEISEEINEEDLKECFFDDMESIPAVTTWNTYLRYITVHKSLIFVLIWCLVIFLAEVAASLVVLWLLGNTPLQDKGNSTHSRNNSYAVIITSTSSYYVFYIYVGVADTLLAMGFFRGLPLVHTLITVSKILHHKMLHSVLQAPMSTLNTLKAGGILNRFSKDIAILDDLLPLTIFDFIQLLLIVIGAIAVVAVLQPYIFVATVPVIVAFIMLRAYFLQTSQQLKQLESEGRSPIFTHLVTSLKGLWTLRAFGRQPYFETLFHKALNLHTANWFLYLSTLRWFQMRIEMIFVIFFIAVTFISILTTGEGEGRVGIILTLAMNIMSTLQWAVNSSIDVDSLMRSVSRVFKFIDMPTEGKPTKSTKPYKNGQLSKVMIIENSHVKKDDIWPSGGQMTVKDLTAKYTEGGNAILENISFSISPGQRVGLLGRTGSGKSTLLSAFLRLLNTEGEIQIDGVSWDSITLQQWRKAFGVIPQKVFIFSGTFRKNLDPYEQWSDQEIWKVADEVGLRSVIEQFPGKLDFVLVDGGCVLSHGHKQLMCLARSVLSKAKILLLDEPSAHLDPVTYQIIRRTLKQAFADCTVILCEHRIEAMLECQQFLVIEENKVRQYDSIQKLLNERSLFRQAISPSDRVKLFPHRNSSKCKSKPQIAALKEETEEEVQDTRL

For `Cc1cccc(C)c1-c1nc2nc(c1C)NCCOC(=O)c1cccc(c1)S(=O)(=O)N2` [Compound 24, 6-(2,6-dimethylphenyl)-7-methyl-12-oxa-2 λ6-thia-3,5,9,19-tetraazatricyclo[12.3.1.14,8]nonadeca-1(18),4,6,8(19),14,16-hexaene-2,2,13-trione], the “Ent. B Max Activity” value in data set [1] was “+ (+ is <30%)”. The same compound showed a ring closure, yield after HPLC in data set [2] (from Cc1cccc(C)c1-c1nc(NS(=O)(=O)c2cccc(C(=O)O)c2)nc(OCCN)c1C, ester bond, HATU/DIEA, DMF, 50.7 mM, 25.0 °C) of 23%.
As for `Cc1cccc(C)c1-c1cc2nc(n1)NS(=O)(=O)c1cccc(c1)C(=O)N[C@H](CC(C)C)CC2` [Compound 14], in data set [1], the “Ent. B Max Activity” value was “+++ (+++ is >60%)” and the EC50 was below 1 µM.
In data set [2] (from COC(=O)C1CC2(CC(N[C@@H](CCc3cc(-c4c(C)cccc4C)nc(NS(=O)(=O)c4cccc(C(=O)O)c4)n3)CC(C)(C)C)C2)C1, amide bond, CDMT/NMM, DMF, 48.6 mM, 18.0 h), `COC(=O)C1CC2(C1)CC(N1C(=O)c3cccc(c3)S(=O)(=O)Nc3nc(cc(-c4c(C)cccc4C)n3)CC[C@H]1CC(C)(C)C)C2` (stereo partly drawn) registered a ring closure, yield after HPLC of 80%.
Turning to `COCCN1CCC2(CC1)CC(N1C(=O)c3cccc(c3)S(=O)(=O)Nc3nc(cc(-c4c(C)cccc4C)n3)CC[C@H]1CC(C)C)C2` [Compound 9, (11S)-6-(2,6-Dimethylphenyl)-11-isobutyl-12-[7-(2-methoxyethyl)-7-azaspiro[3.5]nonan-2-yl]-2,2-dioxo-2λ6-thia-3,5,12,19-tetrazatricyclo[12.3.1.14,8]nonadeca-1(18),4(19),5,7,14,16-hexaen-13-one], in data set [1], the “Ent. B Max Activity” value is “+++ (+++ is >60%)” and the EC50 was below 1 µM.
With `Cc1cccc(C)c1-c1cc2nc(n1)NS(=O)(=O)c1cccc(c1)C(=O)N(CCCC(C)(C)O)CCC2C` (stereo not drawn) [Compound 10, 6-(2,6-Dimethylphenyl)-12-(4-hydroxy-4-methyl-pentyl)-9-methyl-2,2-dioxo-2λ6-thia-3,5,12,19-tetrazatricyclo[12.3.1.14,8]nonadeca-1(18),4(19),5,7,14,16-hexaen-13-one], in data set [1], the “Ent. B Max Activity” value is “+++ (+++ is >60%)” and the EC50 lay in the range of 1 to 3 µM.
Consider `Cc1cccc(C)c1-c1cc2nc(n1)NS(=O)(=O)c1cccc(c1)C(=O)N(C1CC3(CC3)C1)CC[C@H]2c1ccc(C(C)(C)C)cc1` [Compound 23], for which the “Ent. B Max Activity” value in data set [1] is “++ (++ is 30-60%)”.
As to `Cc1cccc(C)c1-c1cc2nc(n1)NS(=O)(=O)c1cccc(c1)C(=O)N(C)CCC2C` (stereo not drawn) [Compound 17], in data set [1], the “Ent. B Max Activity” value is on record as “+++ (+++ is >60%)” and the EC50 fell in the range of 1 to 3 µM.
With `Cc1cccc(C)c1-c1cc2nc(n1)NS(=O)(=O)c1cccc(c1)C(=O)N(Cc1ccc(C(C)(C)O)cc1)CCC2C` (stereo not drawn) [Compound 16], in data set [1], the “Ent. B Max Activity” value is “+++ (+++ is >60%)” and the EC50 is below 1 µM.
The compound `COc1c2nc(nc1-c1c(C)cccc1C)NS(=O)(=O)c1cccc(c1)C(=O)N(Cc1cncc(N(C)C3CCC3)n1)[C@H](CC(C)(C)C)CC2` had a ring closure, yield after HPLC in data set [2] (from COc1c(CC[C@@H](CC(C)(C)C)NCc2cncc(N(C)C3CCC3)n2)nc(NS(=O)(=O)c2cccc(C(=O)O)c2)nc1-c1c(C)cccc1C, amide bond, CDMT/NMM, DMF, 13.3 mM, 72.5 h) of 33%.
For `Cc1cccc(C)c1-c1cc2nc(n1)NS(=O)(=O)c1cccc(c1)C(=O)N1Cc3cc(C(C)(C)C)ccc3[C@@H](O2)[C@H]1CC(C)C`, in data set [2] (from Cc1cccc(C)c1-c1cc(O[C@@H]2c3ccc(C(C)(C)C)cc3CN[C@@H]2CC(C)C)nc(NS(=O)(=O)c2cccc(C(=O)O)c2)n1, amide bond, HATU/NaOtBu, THF/DMF, 25.0 °C, 3 steps), the ring closure, yield after HPLC was determined as 1%.
`Cc1cccc(C)c1-c1cc2nc(n1)NS(=O)(=O)c1cccc(c1)C(=O)N(C1CC3(CC3)C1)CC[C@H]2c1ccc(C(C)(C)C)cc1` [Compound 22]: in data set [1], the “Ent. B Max Activity” value is reported as “++ (++ is 30-60%)” and the concentration giving a half-maximal response (EC50) was below 1 µM.
In the case of `Cc1cccc(C)c1-c1cc2nc(n1)NS(=O)(=O)c1cccc(c1)C(=O)N(C1CC3(CC3)C1)CCC2c1ccc(C(C)(C)C)cc1` (stereo not drawn) [Compound 19], in data set [1], the “Ent. B Max Activity” value was “++ (++ is 30-60%)” and the EC50 was below 1 µM.
For `Cc1cccc(C)c1-c1cc2nc(n1)NS(=O)(=O)c1cccc(n1)C(=O)N(C1CC3(CC3)C1)[C@H](CC(C)C)CC2` [Compound 15], in data set [1], the “Ent. B Max Activity” value is “++ (++ is 30-60%)” and the EC50 was below 1 µM.
For the compound `Cc1cccc(C)c1-c1cc2nc(n1)NS(=O)(=O)c1cccc(c1)C(=O)N(Cc1ncccn1)CCC2C` (stereo not drawn) [Compound 18], in data set [1], the “Ent. B Max Activity” value is given as “+++ (+++ is >60%)” and the EC50 fell in the range of 1 to 3 µM.
As for `Cc1cccc(C)c1-c1cc2nc(n1)NS(=O)(=O)c1cccc(c1)C(=O)N(C1CC3(CC3)C1)CCC21CC1` [Compound 41, 6-(2,6-Dimethylphenyl)-2,2-dioxo-12-spiro[2.3]hexan-5-yl-spiro[2λ6-thia-3,5,12,19-tetrazatricyclo[12.3.1.14,8]nonadeca-1(18),4(19),5,7,14,16-hexaene-9,1′-cyclopropane]-13-one], in data set [1], the “Ent. B Max Activity” value was “++ (++ is 30-60%)” and the concentration for a half-maximal effect (EC50) was below 1 µM.
Take `Cc1cccc(C)c1-c1cc2nc(n1)NS(=O)(=O)c1cccc(c1)C(=O)N(C1CC3(CC3)C1)CC2Cc1ccc(C(C)(C)C)cc1` (stereo not drawn) [Compound 20]: in data set [1], the “Ent. B Max Activity” value was “++ (++ is 30-60%)” and the EC50 was below 1 µM.
`Cc1cccc(C)c1-c1cc2nc(n1)NS(=O)(=O)c1cccc(c1)C(=O)OC[C@@H](CC(C)(C)C)N2c1ccnn1C` [Compound 29]: in data set [1], the “Ent. B Max Activity” value is “+ (+ is <30%)”.
On the same count and under the same terms, the result for `Cc1cccc(C)c1-c1cc2nc(n1)NS(=O)(=O)c1cccc(c1)C(=O)OC[C@@H](CC(C)(C)C)N2Cc1nccc(C(F)(F)F)n1` [Compound 32] reads “+ (+ is <30%)”.
`Cc1cccc(C)c1-c1cc2nc(n1)NS(=O)(=O)c1cccc(c1)C(=O)O[C@H]1c3ccc(C(C)(C)C)cc3CN2[C@@H]1CC(C)C` showed a ring closure, yield after HPLC in data set [2] (from Cc1cccc(C)c1-c1cc(N2Cc3cc(C(C)(C)C)ccc3[C@H](O)[C@H]2CC(C)C)nc(NS(=O)(=O)c2cccc(C(=O)O)c2)n1, ester bond, HATU/NaOtBu, THF/DMF, 25.0 °C, 3 steps) of 4%.
On to `Cc1cccc(C)c1-c1nc2nc(c1C)OCCNC(=O)c1cccc(c1)S(=O)(=O)N2`, for which the ring closure, yield after HPLC in data set [2] (from Cc1cccc(C)c1-c1nc(NS(=O)(=O)c2cccc(C(=O)O)c2)nc(OCCN)c1C, amide bond, HATU/DIEA, DMF, 50.7 mM, 25.0 °C) worked out at 23%.
In data set [2] (from Cc1cccc(C)c1-c1cc(O[C@H]2c3ccc(C(C)(C)C)cc3CN[C@@H]2CC(C)C)nc(NS(=O)(=O)c2cccc(C(=O)O)c2)n1, amide bond, HATU/NaOtBu, THF/DMF, 80.1 mM, 25.0 °C, 3 steps), `Cc1cccc(C)c1-c1cc2nc(n1)NS(=O)(=O)c1cccc(c1)C(=O)N1Cc3cc(C(C)(C)C)ccc3[C@H](O2)[C@H]1CC(C)C` yielded a ring closure, yield after HPLC of 27%.
